Experimental findings from ChEMBL document CHEMBL1201862, “PubChem BioAssay data set” (2004) are described below.

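Compound exposure: 48 hours, 5 concentrations, 96-well plates. Abbreviation: GI50, concentration required for 50% inhibition of growth.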 Calls of active or inactive are those of the source. Rule as the data show it: active = GI50 up to about 1.1 µM and inactive = higher. *1 amine or outer side, *2 acyl side, *3 side chain or, on linkers, in order; H or OH if unused. Where a SMILES comes first, the peptide text is derived from it. [ ]: non-standard residue; d: D form. The star is where a group is joined. ξ: configuration not given here. X53 = CC(C)C[C@H](N[*:1])C1=N[C@H](C(=O)[*:2])CS1; Ile(3ξ) = CCC(C)[C@H](N)C(=O)O; Allyl(1,1-Me2) = C=CC(C)(C)* Bounds are passed on as bounds.

Some test systems named below: A498; CCRF-CEM; COLO 205; HCT-116; HCT-15; HOP-62; HT-29; IGROV-1; KM12; M14; MOLT-4; Malme-3M; NCI/ADR-RES; PC-3; SK-MEL-2; SNB-75; SR; TK-10; UACC-62; UO-31.
Assay in all cases: inhibition of tumour cell growth, NCI panel, 48 h

In the case of `Cc1cc(-c2nc3cc(O)ccc3s2)ccc1N`, the GI50 with A498 is 24.7 µM (inactive); in the assay with CCRF-CEM, 27.7 µM (inactive); in the assay on COLO 205 it was 21 µM (inactive); in the assay on HCT-116 it was 22.8 µM (inactive); in the assay with HCT-15, 41.2 µM; with HOP-62, 26.8 µM (inactive). Besides, the GI50 is 21.5 µM (inactive) in the assay on HT-29; 33.4 µM (inactive) in the assay with IGROV-1; 23.2 µM (inactive) in the assay with KM12; 20.9 µM (inactive) in the assay with M14; 96.2 µM (inactive) in the assay with MOLT-4; 45.7 µM (inactive) in the assay on Malme-3M. Besides, the GI50 in the assay with NCI/ADR-RES was 38.1 µM (inactive); with PC-3, 30.1 µM (inactive); with SK-MEL-2, 28.4 µM (inactive); in the assay on SNB-75, 23.7 µM (inactive); in the assay with SR, 32 µM (inactive); with TK-10, 38.9 µM (inactive). For the same compound, the figures for the GI50 with UACC-62 and with UO-31 were 19.9 µM (inactive) and 18.7 µM (inactive), respectively.

As to `c1ccc2c(Cc3[nH]c4ccccc4c3Cc3c[nH]c4ccccc34)c[nH]c2c1`, the GI50 with A498 is 2.39 µM (inactive); in the assay with CCRF-CEM it was 2.16 µM (inactive); in the assay with COLO 205, 2.07 µM (inactive); with HCT-116, 1.69 µM (inactive); in the assay on HCT-15 it was 2.76 µM; in the assay with HOP-62, 3.38 µM (inactive). The GI50 is 2.52 µM (inactive) in the assay on HT-29; 1.67 µM (inactive) in the assay on IGROV-1; 2.09 µM (inactive) in the assay on KM12; 2.36 µM (inactive) in the assay with M14; 1.66 µM (inactive) in the assay on MOLT-4; 2.05 µM (inactive) in the assay with Malme-3M. In addition, the GI50 was 2.55 µM (inactive) with NCI/ADR-RES; 2.38 µM (inactive) in the assay on PC-3; 2.36 µM (inactive) in the assay on SK-MEL-2; 2.48 µM (inactive) in the assay on SNB-75; 2.87 µM (inactive) with SR; 2.85 µM (inactive) in the assay with TK-10. Also, the GI50 is 11 µM (inactive) in the assay with UACC-62 and 3.35 µM (inactive) in the assay on UO-31.

Regarding `C=CC(C)(C)OC[C@@H]1NC(=O)CNC(=O)[C@@H]2CCCN2C(=O)[C@H](C(C)CC)NC(=O)[C@@H]2CSC(=N2)[C@H](CC(C)C)NC1=O` (stereo not given in full) (cyclo(GS(Allyl(1,1-Me2))[X53][Ile(3ξ)]P)), the GI50 with A498 was > 100 µM (inactive); in the assay with CCRF-CEM it was 30.9 µM (inactive); in the assay with COLO 205 it was > 100 µM (inactive); in the assay with HCT-116 it was 56.5 µM (inactive); in the assay with HCT-15 it was 58.1 µM; in the assay on HOP-62 it was > 100 µM (inactive). For the same compound, the GI50 in the assay with HT-29 was 84.7 µM (inactive); in the assay on IGROV-1 it was 59 µM (inactive); in the assay on KM12, 55.2 µM (inactive); in the assay with M14, > 100 µM (inactive); in the assay on MOLT-4, 27.5 µM (inactive); in the assay with Malme-3M it was > 100 µM (inactive). Moreover, the GI50 in the assay on NCI/ADR-RES was > 100 µM (inactive); in the assay with PC-3, 44.2 µM (inactive); in the assay with SK-MEL-2, > 100 µM (inactive); with SNB-75 it was 34.5 µM (inactive); in the assay on SR, 64.4 µM (inactive); in the assay with TK-10, > 100 µM (inactive). The GI50 with UACC-62 is 72.3 µM (inactive); in the assay on UO-31, 41.6 µM (inactive).

For the compound `CCN(CCCl)c1cc(CN(C)C)cc(NC(=O)c2cc(C(=O)Nc3cc(CN(C)C)cc(N(CC)CCCl)c3)n(C)n2)c1`, the GI50 is 2 µM (inactive) in the assay with A498; < 0.01 µM (active) with CCRF-CEM; 0.721 µM (active) in the assay with COLO 205; 0.227 µM (active) in the assay on HCT-116; 2.31 µM in the assay on HCT-15; 0.121 µM (active) with HOP-62. Also, the GI50 in the assay with HT-29 was 0.136 µM (active); with IGROV-1, 0.136 µM (active); with KM12 it was 0.236 µM (active); with M14, 0.381 µM (active); in the assay with MOLT-4, < 0.01 µM (active); with Malme-3M, 1.49 µM (inactive). For the same compound, the GI50 in the assay with NCI/ADR-RES was 10.3 µM (inactive); with PC-3, 0.164 µM (active); in the assay with SK-MEL-2, 1.55 µM (inactive); in the assay with SNB-75, 0.271 µM (active); with SR, 0.0119 µM (active); in the assay on TK-10, 2.69 µM (inactive). Also, the GI50 with UACC-62 is 0.219 µM (active); in the assay on UO-31, 3.06 µM (inactive).

For the compound `CN(C)C1C(O)=C(C(=O)NCN2CCCC2)C(=O)C2(O)C(O)=C3C(=O)c4c(O)cccc4C(C)(O)C3CC12` (stereo not given), the GI50 with A498 was > 100 µM (inactive); with CCRF-CEM, 59 µM (inactive); in the assay on COLO 205, > 100 µM (inactive); in the assay on HCT-116 it was > 100 µM (inactive); with HCT-15, over 100 µM; in the assay on HOP-62 it was > 100 µM (inactive). The GI50 with HT-29 is > 100 µM (inactive); in the assay with IGROV-1, > 100 µM (inactive); with KM12, > 100 µM (inactive); in the assay on M14, 77.3 µM (inactive); in the assay on MOLT-4, 40 µM (inactive); with Malme-3M, 25.6 µM (inactive). Also, the GI50 in the assay on NCI/ADR-RES is > 100 µM (inactive); with PC-3, > 100 µM (inactive); with SK-MEL-2, > 100 µM (inactive); in the assay on SNB-75, 52.4 µM (inactive); in the assay on SR, > 100 µM (inactive); in the assay with TK-10, 60.7 µM (inactive). Further, the GI50 with UACC-62 and with UO-31 was > 100 µM (inactive) in each case.

As to `COc1ccc(C(=O)/C=C/c2ccc(OCC(=O)O)cc2)cc1`, the GI50 is > 100 µM (inactive) in the assay with A498; 31.7 µM (inactive) in the assay with CCRF-CEM; 70.3 µM (inactive) in the assay on COLO 205; 47.1 µM (inactive) in the assay with HCT-116; over 100 µM in the assay with HCT-15; > 100 µM (inactive) in the assay on HOP-62. Moreover, the GI50 was > 100 µM (inactive) with HT-29; > 100 µM (inactive) in the assay with IGROV-1; 51.5 µM (inactive) in the assay with KM12; > 100 µM (inactive) in the assay on M14; 8.57 µM (inactive) in the assay with MOLT-4; 50.7 µM (inactive) in the assay on Malme-3M. In addition, the GI50 with NCI/ADR-RES was 83.4 µM (inactive); in the assay with PC-3, > 100 µM (inactive); in the assay on SK-MEL-2, 44.5 µM (inactive); with SNB-75 it was > 100 µM (inactive); in the assay on SR, 13 µM (inactive); in the assay with TK-10 it was > 100 µM (inactive). Further, the GI50 was 52.1 µM (inactive) in the assay with UACC-62 and > 100 µM (inactive) in the assay on UO-31.

Take `Cc1ccc(S(=O)(=O)NC(CCC(=O)NNc2ccccc2)C(=O)NNc2ccccc2)cc1` (stereo not given): the GI50 with A498 was > 100 µM (inactive); with CCRF-CEM, 51.4 µM (inactive); in the assay on COLO 205, 13.4 µM (inactive); in the assay with HCT-116, 30.7 µM (inactive); with HCT-15, 15.4 µM; with HOP-62, > 100 µM (inactive). Also, the GI50 in the assay on HT-29 was 13.2 µM (inactive); in the assay on IGROV-1 it was 91 µM (inactive); with KM12, 2.84 µM (inactive); in the assay with M14 it was 9.53 µM (inactive); in the assay with MOLT-4, 3.85 µM (inactive); in the assay on Malme-3M, 31.7 µM (inactive). The GI50 is > 100 µM (inactive) in the assay with NCI/ADR-RES; 4.14 µM (inactive) with PC-3; 13.5 µM (inactive) in the assay with SK-MEL-2; > 100 µM (inactive) in the assay on SNB-75; 18.9 µM (inactive) in the assay on SR; 1.95 µM (inactive) in the assay on TK-10. Further, the GI50 in the assay on UACC-62 is 2.87 µM (inactive); with UO-31, 6.1 µM (inactive).

In the case of `COc1cc2c(cc1OC)CCc1cc(OC)c(OC)cc1CC2`, the GI50 with A498 is > 100 µM (inactive); with CCRF-CEM it was > 100 µM (inactive); in the assay on COLO 205 it was > 100 µM (inactive); in the assay with HCT-116 it was > 100 µM (inactive); in the assay on HCT-15, over 100 µM; with HOP-62 it was > 100 µM (inactive). Besides, the GI50 in the assay on HT-29, in the assay with IGROV-1, in the assay with KM12, with M14, with MOLT-4 and in the assay with Malme-3M was > 100 µM (inactive) each time. Further, the GI50 in the assay with NCI/ADR-RES, with PC-3, in the assay with SK-MEL-2, with SNB-75, in the assay on SR and in the assay on TK-10 was > 100 µM (inactive) throughout. Also, the GI50 in the assay with UACC-62 and with UO-31 was > 100 µM (inactive) throughout.

With `COC1C=COC2(C)Oc3c(C)c(O)c4c(O)c(c(C5SCCS5)c(O)c4c3C2=O)NC(=O)/C(C)=C\C=CC(C)C(O)C(C)C(O)C(C)C(OC(C)=O)C1C` (stereo not given), the GI50 in the assay with A498 is 13.1 µM (inactive); in the assay with CCRF-CEM, 2.26 µM (inactive); with COLO 205, 2.49 µM (inactive); with HCT-116 it was 5.02 µM (inactive); in the assay with HCT-15, 9.66 µM; with HOP-62, 10.9 µM (inactive). Besides, the GI50 was 3.49 µM (inactive) in the assay with HT-29; 7.33 µM (inactive) in the assay with IGROV-1; 5.35 µM (inactive) in the assay on KM12; 6.19 µM (inactive) in the assay with M14; 2.32 µM (inactive) with MOLT-4; 8.11 µM (inactive) in the assay with Malme-3M. Moreover, the GI50 in the assay with NCI/ADR-RES is 15.5 µM (inactive); in the assay on PC-3, 4.98 µM (inactive); in the assay with SK-MEL-2 it was 6.43 µM (inactive); with SNB-75, 7.53 µM (inactive); with SR, 3.15 µM (inactive); in the assay on TK-10, 3.21 µM (inactive). In addition, the GI50 in the assay with UACC-62 is 6.18 µM (inactive); in the assay on UO-31, 12.1 µM (inactive).

With `COc1cc2c(cc1O)NC(=O)[C@@H]1CCCN1C2=O`, the GI50 is > 100 µM (inactive) in the assay on A498; > 100 µM (inactive) in the assay on CCRF-CEM; > 100 µM (inactive) in the assay with COLO 205; > 100 µM (inactive) in the assay with HCT-116; over 100 µM in the assay on HCT-15; > 100 µM (inactive) with HOP-62. Moreover, the GI50 in the assay with HT-29, with IGROV-1, in the assay on KM12, with M14, in the assay on MOLT-4 and with Malme-3M was > 100 µM (inactive) throughout. Also, the GI50 in the assay with NCI/ADR-RES, with PC-3, in the assay with SK-MEL-2, in the assay on SNB-75, with SR and with TK-10 was > 100 µM (inactive) each time. Further, the GI50 with UACC-62 and in the assay on UO-31 was > 100 µM (inactive) each time.
